{"source": "patent US12377112B2", "about": "“Methods of treating neurocognitive disorders, chronic pain and reducing inflammation” (priority 2019, dated 2025)", "key": {"male C57BL/6 mice": {"test_system": "male C57BL/6 mice", "experiment": "Chronic constriction injury (CCI) model of neuropathic pain, von Frey paw withdrawal threshold", "format": "in vivo, mouse", "procedure": "To determine whether psilocybin may alleviate chronic neuropathic pain, various doses of psilocybin were tested in a mouse model of chronic constriction injury (CCI).\nMale C57BL/6 mice (age 6-7 weeks, source: Charles River UK) were housed in standard caging in groups of 2-4, with free access to food (5CR4, Purina) and water (except during placement in the test box) on a 12/12 light/dark cycle.\nAll animals underwent behavioral testing of mechanical allodynia on three consecutive days (Day −2, Day−1 and Day 0) prior to surgery in order to determine the baseline withdrawal thresholds. Briefly, Static mechanical (tactile) allodynia was assessed by measurement of withdrawal threshold using calibrated (force; g) von-Frey monofilaments (Touch-Test Sensory Evaluator; Scientific Marketing Associates) applied to the plantar surface of the hind-paw. The animals were placed in individual Perspex boxes on a raised metal mesh for 30-40 minutes before the test. A series of graduated von Frey hairs (0.07, 0.16, 0.4, 0.6 and 1 g) was applied in sequence with a protocol of 1 second on 1 second off, repeated 10 times. Each hair was applied perpendicularly to the center of the ventral surface of the paw until it slightly bends. The force applied to the hind-paw of the animal to induce 5 responses out of 10 trials was recorded as paw withdrawal threshold (PWT). Three baseline paw withdrawal thresholds were taken on ipsilateral paws. The mean of the last two readings used as the baseline withdrawal threshold.\nSubsequently, surgery was performed under anesthesia (Isoflurane mixed with oxygen, 3:1, 2 L/min) to tie three loose ligatures of prolene (7-0, Ethicon) around the sciatic nerve, with 1 mm spacing between each. The nerve was then returned below the muscle layer and the wound closed using absorbable sutures (Vicryl).\nFollowing recovery from surgery, Von Frey assessment of mechanical allodynia was taken on days 19 and 22. Animals were then ranked and randomized (based on a Latin square design) to treatment groups according to the percentage change (compared to pre-surgery baseline) of the mean mechanical withdrawal threshold observed on days 19 and 22. Only those animals showing a PWT percentage change of >50% from pre-surgery baseline were included in the study.\nOn day 23, the animals were dosed with psilocybin (1, 3 or 10 mg/kg by intraperitoneal injection) or vehicle (10 mL/kg by intraperitoneal injection). Nerve pain medication Pregabalin (15 mg/kg administered orally) was also used as a positive control. Allodynia was then assessed at 0.5, 4 and 24 hours post-treatment timepoint (PTT)."}, "[1]": {"test_system": "human iPSC-derived neurons", "experiment": "Neurite outgrowth in human iPSC-derived neurons", "format": "cell-based", "procedure": "The neurotrophic effect of psilocin was tested on human iPSC-derived neuronal cultures. Two parameters were evaluated: the average number of neurites per neuron, and the average total neurite length per neuron. Briefly, neurons establish physical connections between them in order to create neuronal networks.\nCryopreserved iCell neurons were thawed and plated according to Cellular Dynamics International instructions. The pharmacological treatments were carried out 2 hours after the cell plating. The cells were maintained in a humidified incubator at 37° C. in 5% CO2-95% air atmosphere.\nStock solutions of psilocin were prepared in 100% DMSO at 1000 times the final concentration in the culture media (1000× concentration).\nFor each culture, each condition was performed in sextuplet.\nEach plate contained two types of other experimental conditions: the control condition treated with vehicle and the culture treated with Brain-derived neutrophic factor (BDNF).\nPlate 1 and 2: Cells were treated with psilocin at 3 different concentrations: 0.03 μM, 0.1 μM, 0.3 μM. The stock solution was prepared fresh in 100% DMSO at 10 mM. BDNF was used in parallel.\nTen days after plating, cultures were fixed with paraformaldehyde in PBS (phosphate buffered saline) (4%, Sigma). Then, cells were successively permeabilized, saturated with PBS (containing 3% of BSA) and incubated for 1 h with anti-beta III tubulin antibody (Sigma) at 1/10 000 in PBS containing 0.5% of BSA (bovine serum albumin). Cells were first washed and were then incubated 1 h with goat anti-mouse antibody coupled with AF488 (Invitrogen A11001) diluted at 1/1000 in PBS containing 0.5% of BSA. Finally, nuclei are stained with DAPI 1 mg/ml at 1/1000 in PBS containing 0.5% of BSA. After rinsing them with PBS, the plate was filmed and neurite networks were examined and analyzed using High-Content Screening (CellInsight, Thermo Scientific).\nThe evaluation of neurite outgrowth was performed using the average number of neurites per neuron and the average of total neurite length per neuron, using Sholl method (Bird & Cuntz, 2019). (See FIG. 59A, FIG. 59B, FIG. 60A, FIG. 60B)."}, "[2]": {"test_system": "rat embryo mesencephalic cells, 6-OHDA", "experiment": "6-OHDA damage on mesencephalic neuronal cultures (TH positive neurons)", "format": "cell-based", "settings": "1 μM, 3 μM and 10 μM, one hour prior to 15 μM 6-OHDA", "procedure": "The neuroprotective effect of psilocin against 6-OHDA-mediated injury on mesencephalic neuronal cultures was investigated.\nA primary culture of rat embryo mesencephalic cells was plated on a 96-well plate. The cells were maintained at 37° C. in 5% CO2. Half of the medium was changed on day 2.\nOn day 6, the culture medium was removed and replaced by media containing psilocin (0.03 μM, 0.1 μM, 0.3 μM, 1 μM, 3 μM, or 10 μM), a negative control (saline vehicle, labelled control in FIG. 10), or a positive control (brain-derived neurotrophic factor (BDNF) and glial cell-derived neurotrophic factor (GDNF))). After one hour, 15 μM 6-OHDA was added for 48 hours.\nOn day 8, immunodetection was used to determine the number of tyrosine hydroxylase positive neurons.\nNeuronal viability was assessed 48 hours after 6-OHDA intoxication and measured by the number of TH (tyrosine hydroxylase) positive neurons. The compound 6-OHDA kills specifically dopaminergic neurons, mimicking the cellular pathophysiology of Parkinson's disease. […] The result for each well was expressed as a percentage by setting the density of tyrosine hydroxylase positive cells under control conditions to 100%. The result for each condition was reported as mean (±S.E.M.) from 4 independent cultures."}, "[3]": {"test_system": "rat primary hippocampal culture, Aβ 1-40 intoxication", "experiment": "Fibrillated amyloid-β damage on cultures of hippocampal neurons (MTT viability)", "format": "cell-based", "excerpt": "Amyloid-β toxicity is a hallmark of Alzheimer's disease, and is also frequently seen in multiple sclerosis lesions. In this study, the neuroprotective effect of psilocin on amyloid-β-induced neuronal death in rat primary hippocampal culture was investigated.\nFemale Wistar rats of 19 days gestation were killed by cervical dislocation and foetuses were removed from the uterus. Their brains were placed in ice-cold medium of Leibovitz (L15, Gibco, Fisher bioblock, France). Hippocampi were carefully removed, and the hippocampal neurons were dissociated by trypsinization for 30 min at 37° C. (trypsin-EDTA, Gibco) in presence of 0.1 mg/ml DNAse I (Roche, France). […] Viable cells were counted in a Neubauer cytometer using the trypan blue exclusion test (Sigma). […]\nPsilocin was added to cells 10 minutes or 48 hours before amyloid-β intoxication. Neuronal viability was assessed 48 hours after amyloid-β intoxication. […]\nTwo days after Aβ exposure (day 11), cell viability was assessed by a measurement of cell metabolic activity using the CellTiter96® non-radioactive kit (MTT, Promega, Charbonnières, France). […] Solubilization solution was added and visible wavelength absorbance data was collected 4 hours later using a 96-well plate reader at 570 nm and 630 nm for non-specific background (Multiskan EX, Thermo Fisher)."}, "Wistar-Kyoto (WKY) rats": {"test_system": "Wistar-Kyoto (WKY) rats", "experiment": "Sleep-wake amounts (EEG/EMG) in Wistar-Kyoto rats", "format": "in vivo, rat", "settings": "5 mg/kg and 10 mg/kg s.c.", "excerpt": "Since WKY rats show decreased sensitivity to conventional monoamine-based antidepressant treatment, they are used as a model of TRD.\nMale (WKY) rats (200-250 g) were implanted with electroencephalography (EEG) and electromyography (EMG) electrodes and telemetry transmitters under general anaesthesia (2-5% isoflurane in Oxygen). A telemetry transmitter (HD-502, Data Sciences International) was placed in the peritoneal cavity, and the wires of the transmitter were passed through the muscle wall and then sub-dermally to the scalp to act as EEG/EMG electrodes. Two bore holes were made in the skull (Fronto-parietal coordinates; Bregma +2 mm anterior, midline +1.0 mm lateral and Lambda 0 mm, +1.5 mm lateral). The positive EEG electrode was attached to the anterior bore hole and the negative EEG electrode to the posterior bore hole. Both electrodes were secured in place using a suitable adhesive agent (Cyanoacrylate gel, RS components). […]\nAnimals were maintained on a 12/12 hour light dark cycle. On study days, the animals were placed in recording boxes and EEG/EMG, locomotor activity, as well as body temperature were recorded for 0.5 h before and 24 h after each dosing. […]\nThe subsequent EEG/EMG recordings were automatically scored as wake, non-REM (NREM) sleep, or REM sleep in 10 second epochs using SleepSign (Kissei Comtec, Japan). […]"}}, "note": "Marks after values point to notes of the source that are not given here.", "data": [{"smiles": "CC(C)C[C@H](CN)CC(=O)O", "note": "[pregabalin, reference compound]", "values": [{"measurement": "Force-induced paw withdrawal, mean", "setting": "male C57BL/6 mice; 15 mg/kg PO group, D19-22 Neuropathic baseline (before dosing)", "result": 0.13, "unit": "g"}, {"measurement": "Force-induced paw withdrawal, mean", "setting": "male C57BL/6 mice; 15 mg/kg PO group, D-2 D-1 Baseline (before surgery and dosing)", "result": 0.67, "unit": "g"}, {"measurement": "Force-induced paw withdrawal, mean", "setting": "male C57BL/6 mice; 15 mg/kg PO, D23 0.5 hours PTT", "result": 0.19, "unit": "g"}, {"measurement": "Force-induced paw withdrawal, mean", "setting": "male C57BL/6 mice; 15 mg/kg PO, D23 4 hours PTT", "result": "0.46* g"}, {"measurement": "Force-induced paw withdrawal, mean", "setting": "male C57BL/6 mice; 15 mg/kg PO, D24 24 hours PTT", "result": 0.16, "unit": "g"}, {"measurement": "Paw withdrawal threshold vs neuropathic baseline", "setting": "male C57BL/6 mice; 15 mg/kg orally, 4 hours", "result": "significant increase"}]}, {"smiles": "CN(C)CCc1c[nH]c2cccc(O)c12", "note": "[psilocin]", "values": [{"measurement": "Average lengths of neurites", "setting": "[1]; 0.03 μM, treated at Day 0", "result": "significant increases"}, {"measurement": "Average length of neurites", "setting": "[1]; 0.03 μM, treated at Day 3", "result": "increase"}, {"measurement": "Number of neurites per neurons", "setting": "[1]; 0.03 μM, treated at Day 3", "result": "increase"}, {"measurement": "Length of neurites", "setting": "[1]; 0.1 μM", "result": "increased"}, {"measurement": "Neuronal viability (TH positive neurons) after 6-OHDA", "setting": "[2]", "result": "increased neuronal viability"}, {"measurement": "Neuronal viability after amyloid-β", "setting": "[3]; 10 μM, applied 10 minutes prior to amyloid-β", "result": "increased neuronal viability"}, {"measurement": "Neuronal viability after amyloid-β", "setting": "[3]; 0.3, 1, 3 and 10 μM, applied 48 hours prior to amyloid-β", "result": "increased neuronal viability"}]}, {"smiles": "CNC1(c2ccccc2Cl)CCCCC1=O", "note": "(centres unmarked) [ketamine]", "values": [{"measurement": "Amount of REM sleep", "setting": "Wistar-Kyoto (WKY) rats", "result": "decreased the amount of REM sleep in a dose-dependent manner"}]}]}
